The values that follow are results of earlier work, collected in US20230265432A1, “METHODS AND COMPOSITIONS FOR TREATING ACUTE MYELOID LEUKEMIA” (Sanford Burnham Prebys Medical Discovery Institute, priority 2021, published 2023).

Broadly, the IC50 is the midpoint of a concentration-inhibition curve. The term EC50 denotes the concentration that produces a half-maximal response.

In one data set the target is EZH2 (Y641F) (Homo sapiens, UniProt Q15910, Y641F). To be noted: cited from earlier work.
In another data set the target is EZH2 (Homo sapiens, UniProt Q15910). To be noted: cited from earlier work.
A further data set addresses BRD3 (Homo sapiens, UniProt Q15059). To be noted: cited from earlier work.
The next data set addresses BRD2 (Homo sapiens, UniProt P25440). The following applies: cited from earlier work.
Data set [1] has as its system p53K370 monomethylation in cells. To be noted: cited from earlier work.
A further data set concerns the target MOF (Homo sapiens, UniProt Q9H7Z6). The following applies: cited from earlier work.
Data set [2] has as its target jumonji histone demethylase (JMJD2). The following applies: cited from earlier work.
The subject of a further data set is PARP. To be noted: cited from earlier work.
Another data set addresses DNA methyltransferase. To be noted: cited from earlier work.
Data set [3] relates to histone methylation in cells. To be noted: cited from earlier work.
The next data set deals with T1, STAT3 (Homo sapiens, UniProt P40763).
T1 construct: endogenous in cells; host or cells: HEL cells
To be noted: in HEL cells; cited from earlier work.

Another data set deals with T2, JAK2 (Homo sapiens, UniProt O60674, V617F).
T2 construct: endogenous in cells; host or cells: HEL cells
To be noted: in HEL cells; cited from earlier work.

For another data set, the target named is EGFR (Homo sapiens, UniProt P00533). To be noted: cited from earlier work.

Chain of MOF (Q9H7Z6 whole entry, species assumed): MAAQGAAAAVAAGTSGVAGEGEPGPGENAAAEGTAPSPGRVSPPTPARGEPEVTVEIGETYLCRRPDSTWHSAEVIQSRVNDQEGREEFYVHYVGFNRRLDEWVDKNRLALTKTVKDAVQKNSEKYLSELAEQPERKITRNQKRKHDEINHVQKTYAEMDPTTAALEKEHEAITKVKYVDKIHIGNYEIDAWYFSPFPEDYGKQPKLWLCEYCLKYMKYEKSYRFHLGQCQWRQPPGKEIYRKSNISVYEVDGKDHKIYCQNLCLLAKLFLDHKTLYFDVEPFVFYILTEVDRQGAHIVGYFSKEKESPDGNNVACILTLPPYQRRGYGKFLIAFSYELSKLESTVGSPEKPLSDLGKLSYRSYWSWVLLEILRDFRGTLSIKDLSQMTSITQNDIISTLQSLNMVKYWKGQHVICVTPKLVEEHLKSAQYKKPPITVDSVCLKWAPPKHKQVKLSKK
T2 sequence (O60674 whole entry V617F): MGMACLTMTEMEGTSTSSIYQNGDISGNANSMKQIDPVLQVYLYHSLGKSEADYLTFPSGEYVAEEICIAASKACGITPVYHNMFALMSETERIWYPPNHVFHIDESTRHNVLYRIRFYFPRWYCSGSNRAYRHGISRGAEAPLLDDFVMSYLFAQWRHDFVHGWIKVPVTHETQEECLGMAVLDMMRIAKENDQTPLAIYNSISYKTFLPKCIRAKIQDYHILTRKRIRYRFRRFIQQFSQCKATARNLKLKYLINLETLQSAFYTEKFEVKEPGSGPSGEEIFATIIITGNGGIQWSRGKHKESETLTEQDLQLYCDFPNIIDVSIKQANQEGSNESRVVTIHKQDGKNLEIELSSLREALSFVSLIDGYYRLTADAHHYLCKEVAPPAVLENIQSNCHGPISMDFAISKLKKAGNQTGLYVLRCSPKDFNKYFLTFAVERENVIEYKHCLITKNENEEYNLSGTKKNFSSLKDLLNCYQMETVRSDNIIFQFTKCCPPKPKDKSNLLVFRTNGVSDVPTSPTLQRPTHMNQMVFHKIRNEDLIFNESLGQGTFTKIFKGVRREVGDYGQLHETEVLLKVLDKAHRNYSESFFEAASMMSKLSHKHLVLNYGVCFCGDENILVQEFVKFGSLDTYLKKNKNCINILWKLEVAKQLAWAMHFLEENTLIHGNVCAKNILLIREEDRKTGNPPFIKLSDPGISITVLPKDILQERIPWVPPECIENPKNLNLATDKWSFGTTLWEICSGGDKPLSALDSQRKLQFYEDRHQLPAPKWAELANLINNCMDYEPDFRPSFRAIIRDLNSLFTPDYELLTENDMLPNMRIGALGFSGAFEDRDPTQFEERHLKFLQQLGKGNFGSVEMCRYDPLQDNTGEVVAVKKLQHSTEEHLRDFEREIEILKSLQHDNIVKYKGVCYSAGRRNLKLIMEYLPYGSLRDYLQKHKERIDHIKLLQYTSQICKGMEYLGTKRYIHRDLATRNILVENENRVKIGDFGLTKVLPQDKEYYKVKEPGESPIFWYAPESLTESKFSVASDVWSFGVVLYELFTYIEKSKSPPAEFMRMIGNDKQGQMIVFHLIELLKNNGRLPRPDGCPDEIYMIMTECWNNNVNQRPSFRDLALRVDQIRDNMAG
Chain of EZH2 (Y641F) (Q15910 whole entry Y641F, species assumed): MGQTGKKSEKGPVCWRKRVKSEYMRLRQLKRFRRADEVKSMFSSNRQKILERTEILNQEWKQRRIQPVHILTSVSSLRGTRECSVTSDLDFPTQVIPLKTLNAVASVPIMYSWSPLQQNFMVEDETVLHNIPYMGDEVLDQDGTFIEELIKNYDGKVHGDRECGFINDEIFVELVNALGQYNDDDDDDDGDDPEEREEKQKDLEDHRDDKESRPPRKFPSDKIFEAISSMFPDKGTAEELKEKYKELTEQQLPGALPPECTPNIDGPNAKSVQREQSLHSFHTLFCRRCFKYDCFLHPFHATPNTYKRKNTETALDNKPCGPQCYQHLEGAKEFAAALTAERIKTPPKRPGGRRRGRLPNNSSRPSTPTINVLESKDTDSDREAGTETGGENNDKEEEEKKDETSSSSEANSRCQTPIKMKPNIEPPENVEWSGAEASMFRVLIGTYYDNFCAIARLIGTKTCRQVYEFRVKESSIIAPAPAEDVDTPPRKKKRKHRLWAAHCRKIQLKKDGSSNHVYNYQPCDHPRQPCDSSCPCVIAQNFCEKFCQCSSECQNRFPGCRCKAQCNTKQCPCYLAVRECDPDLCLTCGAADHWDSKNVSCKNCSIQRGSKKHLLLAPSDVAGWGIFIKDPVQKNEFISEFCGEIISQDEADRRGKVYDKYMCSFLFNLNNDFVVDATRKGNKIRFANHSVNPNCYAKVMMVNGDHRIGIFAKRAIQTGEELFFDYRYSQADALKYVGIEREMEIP
Chain of EZH2 (Y641F) (O75530 whole entry partner, species assumed): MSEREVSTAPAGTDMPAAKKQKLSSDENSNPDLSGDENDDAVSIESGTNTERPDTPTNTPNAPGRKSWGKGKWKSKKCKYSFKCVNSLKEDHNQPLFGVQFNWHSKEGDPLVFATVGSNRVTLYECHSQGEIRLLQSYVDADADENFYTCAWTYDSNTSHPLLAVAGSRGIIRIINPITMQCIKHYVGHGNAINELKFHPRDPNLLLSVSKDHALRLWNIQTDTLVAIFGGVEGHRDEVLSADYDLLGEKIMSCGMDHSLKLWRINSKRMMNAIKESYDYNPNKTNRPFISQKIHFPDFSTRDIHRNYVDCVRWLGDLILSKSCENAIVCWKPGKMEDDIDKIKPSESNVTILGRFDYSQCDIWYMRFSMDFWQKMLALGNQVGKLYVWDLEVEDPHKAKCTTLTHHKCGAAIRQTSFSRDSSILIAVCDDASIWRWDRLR
Chain of EZH2 (Y641F) (Q15022 whole entry partner, species assumed): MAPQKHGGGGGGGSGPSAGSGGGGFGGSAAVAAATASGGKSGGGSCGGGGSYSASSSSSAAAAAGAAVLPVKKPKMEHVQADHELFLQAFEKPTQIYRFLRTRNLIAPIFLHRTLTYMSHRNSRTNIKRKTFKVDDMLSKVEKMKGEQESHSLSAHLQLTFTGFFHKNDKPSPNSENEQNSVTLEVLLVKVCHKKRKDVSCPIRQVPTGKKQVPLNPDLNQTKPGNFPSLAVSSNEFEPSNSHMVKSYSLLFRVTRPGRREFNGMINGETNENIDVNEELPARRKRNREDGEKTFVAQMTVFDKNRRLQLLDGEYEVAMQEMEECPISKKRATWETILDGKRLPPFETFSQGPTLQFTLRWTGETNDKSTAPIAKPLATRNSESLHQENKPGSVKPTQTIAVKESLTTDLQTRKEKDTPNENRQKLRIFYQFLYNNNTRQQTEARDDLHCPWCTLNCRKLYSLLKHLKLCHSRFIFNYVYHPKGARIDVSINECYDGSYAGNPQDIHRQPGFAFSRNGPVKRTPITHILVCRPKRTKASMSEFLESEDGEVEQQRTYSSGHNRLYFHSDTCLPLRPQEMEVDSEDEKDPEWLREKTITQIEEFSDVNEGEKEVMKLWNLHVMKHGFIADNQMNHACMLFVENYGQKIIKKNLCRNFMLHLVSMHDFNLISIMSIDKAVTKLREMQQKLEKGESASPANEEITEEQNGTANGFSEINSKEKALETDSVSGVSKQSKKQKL
Chain of EZH2 (Y641F) (Q09028 whole entry partner, species assumed): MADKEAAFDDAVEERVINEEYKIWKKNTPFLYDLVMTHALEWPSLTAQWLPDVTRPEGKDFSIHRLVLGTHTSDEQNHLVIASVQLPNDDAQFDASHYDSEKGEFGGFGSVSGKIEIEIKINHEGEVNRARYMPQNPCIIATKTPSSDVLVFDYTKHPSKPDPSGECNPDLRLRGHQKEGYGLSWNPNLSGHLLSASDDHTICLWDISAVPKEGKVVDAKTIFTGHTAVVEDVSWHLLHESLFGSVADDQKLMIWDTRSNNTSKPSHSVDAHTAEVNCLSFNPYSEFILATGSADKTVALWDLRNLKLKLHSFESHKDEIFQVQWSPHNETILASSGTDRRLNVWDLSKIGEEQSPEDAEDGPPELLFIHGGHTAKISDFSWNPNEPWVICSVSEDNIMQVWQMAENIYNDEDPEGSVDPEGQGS
Chain of BRD2 (P25440 whole entry, species assumed): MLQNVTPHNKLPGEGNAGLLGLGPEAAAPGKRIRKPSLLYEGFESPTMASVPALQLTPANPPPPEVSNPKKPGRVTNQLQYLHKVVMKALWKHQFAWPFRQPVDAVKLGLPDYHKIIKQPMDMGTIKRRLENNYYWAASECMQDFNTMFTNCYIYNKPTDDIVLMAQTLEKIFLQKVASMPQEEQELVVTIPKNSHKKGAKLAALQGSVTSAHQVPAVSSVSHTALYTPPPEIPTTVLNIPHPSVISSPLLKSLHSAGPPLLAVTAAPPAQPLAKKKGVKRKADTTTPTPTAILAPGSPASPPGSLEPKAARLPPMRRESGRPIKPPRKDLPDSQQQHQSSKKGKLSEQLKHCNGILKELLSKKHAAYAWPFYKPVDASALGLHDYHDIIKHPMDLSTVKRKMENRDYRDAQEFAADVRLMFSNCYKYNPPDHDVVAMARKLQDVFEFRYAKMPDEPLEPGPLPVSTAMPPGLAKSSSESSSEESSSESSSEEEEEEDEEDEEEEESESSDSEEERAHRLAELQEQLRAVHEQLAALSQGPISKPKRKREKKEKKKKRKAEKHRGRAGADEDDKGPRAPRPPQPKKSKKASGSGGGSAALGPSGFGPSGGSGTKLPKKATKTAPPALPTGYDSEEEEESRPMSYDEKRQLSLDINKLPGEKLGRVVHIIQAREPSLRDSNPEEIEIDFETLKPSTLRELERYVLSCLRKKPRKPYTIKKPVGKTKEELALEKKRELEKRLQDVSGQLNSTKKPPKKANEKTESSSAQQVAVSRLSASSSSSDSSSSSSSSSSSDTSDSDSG
Chain of EZH2 (Q15910 whole entry, species assumed): as the sequence (Q15910 whole entry Y641F, species assumed) above, with F641Y counted along it

In the case of `CCC(CC)n1ccc2c(C(=O)NCc3c(C)cc(C)[nH]c3=O)cc(C#N)cc21` [EI1], the IC50 was 13 nM at EZH2 (Y641F) and 15 nM at EZH2. For the molecule `CC(=O)N1c2ccc(-c3ccc(C(=O)O)cc3)cc2[C@H](Nc2ccc(Cl)cc2)C[C@@H]1C` [GSK1324726A (I-BET726)], the IC50 at BRD3 was 31 nM; at BRD2, 41 nM. With `Cc1cn(CCN2CCN(c3ccccc3-c3cc(C#N)cc(C(=O)NCCCN4CCCC4)c3)CC2)c2ccccc12` [LLY-507], the IC50 in data set [1] is roughly 600 nM.

In the case of `CCCCCCCc1ccc(CCc2cccc(O)c2C(=O)O)cc1` [MG149], the IC50 on MOF is 47000 nM.

As for `CN(C)CCCNC(=O)c1ccc(-c2cc(O)c3ncccc3c2)cc1` [ML324], the IC50 in data set [2] was 920 nM. As to `CN(C)CC(=O)Nc1ccc2[nH]c(=O)c3ccccc3c2c1` [PJ34], in the data set on PARP, the EC50 was 20 nM. In the case of `O=C(O)C(Cc1c[nH]c2ccccc12)N1C(=O)c2ccccc2C1=O` (stereo not shown) [RG108], the IC50 at DNA methyltransferase is 115 nM. On to `O=C(NCC(=O)N1CCCC1)Nc1ccc2cnccc2c1` [SGC707], for which the IC50 in data set [3] was less than 1000 nM. Take `C[C@H](NC(=O)/C(C#N)=C/c1cccc(Br)n1)c1ccccc1` [WP1066]: the IC50 at STAT3 was 2430 nM; at JAK2, 2300 nM.

For AG-490 (Tyrphostin B42), the “fold more selective for EGFR versus ErbB2” value at EGFR is 135 fold.
